Data published in US7879795B2, “Enhancement of tigecycline potency using efflux pump inhibitors” (Mpex Pharmaceuticals, Inc., priority 2004, dated 2011).

Experiments:
[1] = Stability in human serum; assay type: in vitro ADME; details: in words
Method: FIG. 9 compares the stability of compounds 1 and 3 in human serum as a function of time. Both compound 1 and compound 3 were stable after 18 hours of incubation with human serum.

[2] = Rat serum pharmacokinetics after 2-hour IV infusion; assay type: in vivo; details: serum, 2-hour IV infusion, total dose 10 mg/kg, two-compartment model
Method: Rat serum pharmacokinetics of compounds 1, 3, 7, and 21 was evaluated after 2-hour IV infusion of 1 mg/ml EPI solution in 0.9% saline. Total infused dose was 10 mg/kg. FIG. 12 depicts the serum concentrations as a function of time. A two-compartment model was used to fit the data and calculate PK parameters.

[3] = Tissue levels after 2-hour IV infusion in rats; assay type: in vivo, rat; details: for concentration at 4 h: 2 h after end of 2-hour IV infusion; for concentration at 4 h / concentration at 2 h / concentration at 6 h: 10 mg/kg; for concentration at 2 h: end of 2-hour IV infusion; for tissue levels and clearance from tissues after 2-hour IV infusion: rat, in words; for concentration at 6 h: 4 h after end of 2-hour IV infusion
Method: Levels of EPIs in various tissues were evaluated after 2-hour IV infusion in rats. The rats received 10 mg/kg IV infusion through FVC. Animals were divided into 2 groups: group 1 was sacrificed immediately after the end of infusion and group 2, 2 h or 4 h after the end of infusion. Tissues from each animal were collected, homogenized and compounds were extracted. Tissues were mixed with saline at 1:1 ratio (v/w) in 12×75 mm polypropylene round bottom tubes. The mixtures were homogenized with a Polytron homogenizer (on ice, 3×10-15 seconds with 30 seconds intervals at the setting of 7). 50 μl of homogenized tissue were immediately transferred to an Eppendorf tube and 2-volumes of 4% TCA were added. After vortexing for 30 seconds, the tubes were centrifuged in a microfuge at top speed (13.2 k rpm) for 5 minutes. The supernatant was collected, and 45 μl of the supernatant was transferred to a glass LC/MS/MS vial (Kimble, 11 mm, 1.5 ml) for analysis, which allowed determination of tissue levels of EPIs at the end of the infusion and 2 h or 4 h later.

[4] = Tissue levels in rat six-hour after 8.4 mg/kg IV bolus; assay type: in vivo; details: rat kidney, liver and lung; 8.4 mg/kg IV bolus; in words
Method: Tissue levels of compounds 1, 2, 3 and 4 were evaluated in kidney, liver and lung six-hour after 8.4 mg/kg IV bolus administration. FIG. 13 depicts the levels as a function of time.
Compound 67, which is the expected metabolite of proteolytic intracellular degradation of compound 3, was detected in rat tissues after IV infusion, confirming the tissue-specific degradation of compound 3 (Tables 9A, B).

[5] = system: P. aeruginosa strain PAM1723 overexpressing MexAB-OprM efflux pump; experiment: Neutropenic mice thigh model of PA infection; assay type: in vivo; details: levofloxacin 30 mg/kg SQ, EPI 60 mg/kg IP, 2 hours post-infection
Method: Efficacy of the EPIs was evaluated in a Neutropenic Mice Thigh Model of P. aeruginosa Infection. Neutropenia was induced by cyclophosphamide 100 mg/kg IP on days 3 and 1 prior to infection. P. aeruginosa strain PAM1723 overexpressing MexAB-OprM efflux pump was grown overnight in Mueller-Hinton Broth (MHB). The next day, the overnight culture was diluted in fresh MHB and was allowed to re-grow to ˜10^8 CFU/mL (OD600˜0.3). The culture was spun down, washed twice with phosphate buffered saline (PBS) and re-suspend in PBS to ˜4×10^6 CFU/mL. Next, this culture was mixed 1:1 with 14% hog-gastric mucin in PBS to give a final inoculum of 2×10^6 CFU/mL. Infection was initiated with injection of 0.1 mL of inoculum (˜2×10^5 CFU/thigh) directly into both thighs of each mouse. Two mice from each treatment group were euthanized at various times after the start of treatment. The thighs were removed aseptically, homogenized in saline, and immediately plated to determine bacterial load (CFU/ml). Treatment was initiated 2 hours post infection.

For `NCCC[C@H](N)C(=O)N[C@H](CCc1ccccc1)C(=O)Nc1cnc2ccccc2c1` [Compound 3, 2-(S),5-Diamino-pentanoic acid [3-phenyl-1-(R)-(quinolin-3-ylcarbamoyl)-propyl]-amide], the “stability after 18 hours of incubation with human serum” value [1] was “stable”, the clearance [2] was 23.3 mL/min/kg and the “2 h/4 h Ratio” value ([3]; rat brain concentration) was 0.35. The concentration at 4 h ([3]; rat brain) was 210 ng/mL, the concentration at 2 h ([3]; rat brain) was 70 ng/mL and the “2 h/4 h Ratio” value ([3]; rat heart concentration) was 4.82. The concentration at 4 h ([3]; rat heart) was 470 ng/mL, the concentration at 2 h ([3]; rat heart) was 2260 ng/mL and the “2 h/4 h Ratio” value ([3]; rat kidney concentration) was 7.28. For the same compound, the concentration at 4 h ([3]; rat kidney) was 1680 ng/mL, the concentration at 2 h ([3]; rat kidney) was 12200 ng/mL and the “2 h/4 h Ratio” value ([3]; rat liver concentration) was 1.60. The concentration at 4 h ([3]; rat liver) was 830 ng/mL, the concentration at 2 h ([3]; rat liver) was 1330 ng/mL and the “2 h/4 h Ratio” value ([3]; rat lung concentration) was 2.23. For the same compound, the concentration at 4 h ([3]; rat lung) was 1910 ng/mL, the concentration at 2 h ([3]; rat lung) was 4270 ng/mL and the “2 h/4 h Ratio” value ([3]; rat muscle concentration) was 1.91. For the same compound, the concentration at 4 h ([3]; rat muscle) was 1140 ng/mL, the concentration at 2 h ([3]; rat muscle) was 2180 ng/mL and the “2 h/4 h Ratio” value ([3]; rat pancreas concentration) was 2.91. For the same compound, the concentration at 4 h ([3]; rat pancreas) was 380 ng/mL, the concentration at 2 h ([3]; rat pancreas) was 1110 ng/mL and the “2 h/4 h Ratio” value ([3]; rat spleen concentration) was 6.16. The concentration at 4 h ([3]; rat spleen) was 720 ng/mL, the concentration at 2 h ([3]; rat spleen) was 4410 ng/mL and the “2 h/4 h Ratio” value ([3]; rat testicles concentration) was 5.14. The concentration at 4 h ([3]; rat testicles) was 60 ng/mL, the concentration at 2 h ([3]; rat testicles) was 320 ng/mL and the “2 h/4 h Ratio” value ([3]; rat thymus concentration) was 1.69. The concentration at 4 h ([3]; rat thymus) was 1460 ng/mL, the concentration at 2 h ([3]; rat thymus) was 2460 ng/mL and the “tissue levels and clearance from tissues after 2-hour IV infusion” value (“tissue levels and clearance from tissues” for short) [3] was “Lower levels”. For the same compound, the “tissue levels at 6 hours after IV injection” value [4] was “very low level” and the “bacterial load in thighs, EPI with levofloxacin versus levofloxacin alone” value [5] was “potentiated levofloxacin in vivo”.
In the case of `NCCC[C@@H](N)C(=O)N[C@H](CCc1ccccc1)C(=O)Nc1cnc2ccccc2c1` [Compound 1, 2-(R),5-Diamino-pentanoic acid [3-phenyl-1-(R)-(quinolin-3-ylcarbamoyl)-propyl]-amide], the “stability after 18 hours of incubation with human serum” value [1] is reported as “stable”, the clearance [2] is reported as 24 mL/min/kg and the “2 h/4 h Ratio” value ([3]; rat brain concentration) is reported as 1.34. The concentration at 4 h ([3]; rat brain) was 130 ng/mL, the concentration at 2 h ([3]; rat brain) was 180 ng/mL and the “2 h/4 h Ratio” value ([3]; rat heart concentration) was 0.93. The concentration at 4 h ([3]; rat heart) was 2340 ng/mL, the concentration at 2 h ([3]; rat heart) was 2180 ng/mL and the “2 h/4 h Ratio” value ([3]; rat kidney concentration) was 1.66. For the same compound, the concentration at 4 h ([3]; rat kidney) was 29600 ng/mL, the concentration at 2 h ([3]; rat kidney) was 49300 ng/mL and the “2 h/4 h Ratio” value ([3]; rat liver concentration) was 0.99. For the same compound, the concentration at 4 h ([3]; rat liver) was 10600 ng/mL, the concentration at 2 h ([3]; rat liver) was 10600 ng/mL and the “2 h/4 h Ratio” value ([3]; rat lung concentration) was 1.55. The concentration at 4 h ([3]; rat lung) was 4180 ng/mL, the concentration at 2 h ([3]; rat lung) was 6500 ng/mL and the “2 h/4 h Ratio” value ([3]; rat muscle concentration) was 1.59. The concentration at 4 h ([3]; rat muscle) was 2860 ng/mL, the concentration at 2 h ([3]; rat muscle) was 4540 ng/mL and the “2 h/4 h Ratio” value ([3]; rat pancreas concentration) was 1.34. The concentration at 4 h ([3]; rat pancreas) was 4050 ng/mL, the concentration at 2 h ([3]; rat pancreas) was 5400 ng/mL and the “2 h/4 h Ratio” value ([3]; rat spleen concentration) was 1.35. The concentration at 4 h ([3]; rat spleen) was 3710 ng/mL, the concentration at 2 h ([3]; rat spleen) was 5010 ng/mL and the “2 h/4 h Ratio” value ([3]; rat testicles concentration) was 2.04. The concentration at 4 h ([3]; rat testicles) was 280 ng/mL, the concentration at 2 h ([3]; rat testicles) was 580 ng/mL and the “2 h/4 h Ratio” value ([3]; rat thymus concentration) was 1.23. The concentration at 4 h ([3]; rat thymus) was 2760 ng/mL, the concentration at 2 h ([3]; rat thymus) was 3410 ng/mL and the “tissue levels and clearance from tissues” value [3] was “High levels”. For the same compound, the “tissue levels at 6 hours after IV injection” value [4] was “relatively high levels” and the “bacterial load in thighs, EPI with levofloxacin versus levofloxacin alone” value [5] was “significantly enhanced activity of levofloxacin”.
With `NCCC[C@H](N)C(=O)N[C@H](Cc1ccc(C(F)(F)F)cc1)C(=O)Nc1cnc2ccccc2c1` [Compound 21, 2-(S),5-Diamino-pentanoic acid [1-(R)-(quinolin-3-ylcarbamoyl)-2-(4-trifluoromethyl-phenyl)-ethyl]amide] the clearance [2] was 16.2 mL/min/kg, the “2 h/6 h Ratio” value ([3]; rat brain concentration) was 16.37 and the concentration at 4 h ([3]; rat brain) was 470 ng/mL. The concentration at 6 h ([3]; rat brain) was 30 ng/mL, the concentration at 2 h ([3]; rat brain) was 490 ng/mL and the “2 h/6 h Ratio” value ([3]; rat heart concentration) was 7.33. It also gave a concentration at 4 h ([3]; rat heart) of 1760 ng/mL, a concentration at 6 h ([3]; rat heart) of 720 ng/mL and a concentration at 2 h ([3]; rat heart) of 5250 ng/mL. The “2 h/6 h Ratio” value ([3]; rat kidney concentration) was 20.10, the concentration at 4 h ([3]; rat kidney) was 20800 ng/mL and the concentration at 6 h ([3]; rat kidney) was 2920 ng/mL. The concentration at 2 h ([3]; rat kidney) was 58700 ng/mL, the “2 h/6 h Ratio” value ([3]; rat liver concentration) was 30.21 and the concentration at 4 h ([3]; rat liver) was 2320 ng/mL. The concentration at 6 h ([3]; rat liver) was 200 ng/mL, the concentration at 2 h ([3]; rat liver) was 5950 ng/mL and the “2 h/6 h Ratio” value ([3]; rat lung concentration) was 3.43. For the same compound, the concentration at 6 h ([3]; rat lung) was 3900 ng/mL, the concentration at 2 h ([3]; rat lung) was 13400 ng/mL and the “2 h/6 h Ratio” value ([3]; rat muscle concentration) was 3.94. The concentration at 4 h ([3]; rat muscle) was 1360 ng/mL, the concentration at 6 h ([3]; rat muscle) was 1210 ng/mL and the concentration at 2 h ([3]; rat muscle) was 4750 ng/mL. The “2 h/6 h Ratio” value ([3]; rat pancreas concentration) was 20.73, the concentration at 4 h ([3]; rat pancreas) was 1580 ng/mL and the concentration at 6 h ([3]; rat pancreas) was 470 ng/mL. For the same compound, the concentration at 2 h ([3]; rat pancreas) was 9710 ng/mL, the “2 h/6 h Ratio” value ([3]; rat spleen concentration) was 3.46 and the concentration at 4 h ([3]; rat spleen) was 4440 ng/mL. The concentration at 6 h ([3]; rat spleen) was 2210 ng/mL, the concentration at 2 h ([3]; rat spleen) was 7660 ng/mL and the “2 h/6 h Ratio” value ([3]; rat testicles concentration) was 8.32. The concentration at 4 h ([3]; rat testicles) was 330 ng/mL, the concentration at 6 h ([3]; rat testicles) was 80 ng/mL and the concentration at 2 h ([3]; rat testicles) was 700 ng/mL. For the same compound, the “2 h/6 h Ratio” value ([3]; rat thymus concentration) was 2.02, the concentration at 4 h ([3]; rat thymus) was 6000 ng/mL and the concentration at 6 h ([3]; rat thymus) was 3590 ng/mL. The concentration at 2 h ([3]; rat thymus) was 7250 ng/mL, the “tissue levels and clearance from tissues” value [3] was “Slower clearance” and the “bacterial load in thighs, EPI with levofloxacin versus levofloxacin alone” value [5] was “significantly enhanced activity of levofloxacin”.
